Consider 26 molecules from patent US10577363B2, “Substituted piperidine compounds” (EPIZYME, INC., priority 2014, dated 2020).

Test [1] addresses T1, SMYD3 (Homo sapiens (Human), UniProt Q9H7B4). The test can be described thus: SMYD3 biochemical assay (SPA, 3H-SAM methylation of MEKK2 protein substrate). The settings on record: average of n = 1 to n = 50; read-out: SMYD3 Biochem IC50. Summed up:
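Enzyme: untagged full-length human SMYD3 from E. coli; substrate GST-tagged MEKK2 from insect cells. Buffer 25 mM Tris-Cl pH 8.0, 1 mM TCEP, 0.005% BSG/Tween 20. 30 min compound–enzyme preincubation at RT; 3H-SAM/MEKK2 start; stop with cold SAM (100 uM final); SPA readout in cpm.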

Test [2] concerns the target T1, SMYD3. The test can be described thus: SMYD3 cell assay (Trimethyl-MEKK2 In-Cell Western in 293T/17 cells). The settings on record: average of n = 1 to n = 50; read-out: SMYD3 Cell IC50. The class given is cell-based. Summed up:
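In-Cell Western readout: methanol-fixed cells stained for trimethyl-MEKK2 and flag tag, ratio per well normalized to DMSO and background controls.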

A word on the IC50: it is the concentration that inhibits the measured activity by half.

T1 sequence (Q9H7B4 whole entry): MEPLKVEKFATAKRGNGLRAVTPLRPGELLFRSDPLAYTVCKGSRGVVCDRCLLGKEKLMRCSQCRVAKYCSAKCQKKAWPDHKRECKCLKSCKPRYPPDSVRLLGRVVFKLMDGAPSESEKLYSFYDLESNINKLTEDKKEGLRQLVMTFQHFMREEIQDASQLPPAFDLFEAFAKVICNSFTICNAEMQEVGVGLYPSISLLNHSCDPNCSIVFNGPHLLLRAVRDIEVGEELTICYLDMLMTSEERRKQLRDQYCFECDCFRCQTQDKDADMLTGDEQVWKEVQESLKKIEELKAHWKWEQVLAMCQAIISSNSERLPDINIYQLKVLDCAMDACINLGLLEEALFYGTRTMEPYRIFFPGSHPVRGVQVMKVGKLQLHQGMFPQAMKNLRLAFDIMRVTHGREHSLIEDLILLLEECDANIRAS

On to `C[C@H]1CN(S(=O)(=O)CCCNCc2ccccc2)[C@@H](C)C[C@H]1NC(=O)c1cc(C2CC2)on1` [compound 628, N-((2S,4R,5S)-1-((3-(benzylamino)propyl)sulfonyl)-2,5-dimethylpiperidin-4-yl)-5-cyclopropylisoxazole-3-carboxamide], for which the IC50 stood at 27.3 nM at SMYD3 [1] and 577 nM on SMYD3 [2].

In the case of `C[C@@H]1CN(S(=O)(=O)CC2CCNCC2)[C@H](C)C[C@@H]1NC(=O)c1cc(C2CC2)on1` [compound 629, 5-cyclopropyl-N-((2R,4S,5R)-2,5-dimethyl-1-((piperidin-4-ylmethyl)sulfonyl)piperidin-4-yl)isoxazole-3-carboxamide], the figures for the IC50 on SMYD3 [1] and at SMYD3 [2] were 28.2 nM and 407 nM, respectively.

Regarding `C[C@H]1C[C@@H](NC(=O)c2cc(C3CC3)on2)CCN1S(=O)(=O)CCCNCC1CC1` [compound 630, 5-cyclopropyl-N-((2S,4S)-1-((3-((cyclopropylmethyl)amino)propyl)sulfonyl)-2-methylpiperidin-4-yl)isoxazole-3-carboxamide], the concentration for half-maximal inhibition (IC50) on SMYD3 [1] stood at 29.4 nM; at SMYD3 [2], 396 nM.

Turning to `C[C@H]1C[C@@H](NC(=O)c2cc(C3CC3)on2)CCN1S(=O)(=O)N1CC2CCC1CN2C` (stereo partly drawn) [compound 631, 5-cyclopropyl-N-((2S,4S)-2-methyl-1-((5-methyl-2,5-diazabicyclo[2.2.2]octan-2-yl)sulfonyl)piperidin-4-yl)isoxazole-3-carboxamide], the results for the IC50 at SMYD3 [1] and at SMYD3 [2] were 29.8 nM and 298 nM, respectively.

As for `C[C@H]1CN(S(=O)(=O)CC2CCNCC2)[C@@H](C)C[C@H]1NC(=O)c1cc(C2CC2)on1` [compound 632, 5-cyclopropyl-N-((2S,4R,5S)-2,5-dimethyl-1-((piperidin-4-ylmethyl)sulfonyl)piperidin-4-yl)isoxazole-3-carboxamide], the results for the half-maximal inhibitory concentration (IC50) on SMYD3 [1] and at SMYD3 [2] were 30.4 nM and 229 nM, respectively.

In the case of `CC(C)NCCCS(=O)(=O)N1CC[C@H](NC(=O)c2cc(C3CC3)on2)C[C@@H]1C` [compound 633, 5-cyclopropyl-N-((2S,4S)-1-((3-(isopropylamino)propyl)sulfonyl)-2-methylpiperidin-4-yl)isoxazole-3-carboxamide], the IC50 came out at 30.4 nM at SMYD3 [1] and 291 nM at SMYD3 [2].

Regarding `C[C@@H]1CN(S(=O)(=O)N2CC[C@H](NC(=O)c3cc(C4CC4)on3)C[C@@H]2C)CCN1` [compound 634, 5-cyclopropyl-N-((2S,4S)-2-methyl-1-(((R)-3-methylpiperazin-1-yl)sulfonyl)piperidin-4-yl)isoxazole-3-carboxamide], the IC50 on SMYD3 [1] turned out to be 31.8 nM; on SMYD3 [2], 176 nM.

With `C[C@H]1C[C@@H](NC(=O)c2cc(C3CC3)on2)CCN1S(=O)(=O)CCCNCC(C)(C)C` [compound 635, 5-cyclopropyl-N-((2S,4S)-2-methyl-1-((3-(neopentylamino)propyl)sulfonyl)piperidin-4-yl)isoxazole-3-carboxamide], the 50% inhibitory concentration (IC50) turned out to be 32.5 nM on SMYD3 [1] and 318 nM at SMYD3 [2].

Turning to `CCC1CN(S(=O)(=O)N2[C@@H]3CC[C@H]2C[C@@H](NC(=O)c2cc(C4CC4)on2)C3)CCN1` (stereo partly drawn) [compound 636, 5-cyclopropyl-N-((1R,3r,5S)-8-((3-ethylpiperazin-1-yl)sulfonyl)-8-azabicyclo[3.2.1]octan-3-yl)isoxazole-3-carboxamide], the IC50 on SMYD3 [1] was 33.2 nM; on SMYD3 [2] it was 365 nM.

For the molecule `C[C@H]1CN(S(=O)(=O)N2CCNCC2)[C@@H](C)C[C@H]1NC(=O)c1cc(C2CC2)on1` [compound 637, 5-cyclopropyl-N-((2S,4R,5S)-2,5-dimethyl-1-(piperazin-1-ylsulfonyl)piperidin-4-yl)isoxazole-3-carboxamide], the IC50 at SMYD3 [1] worked out at 33.4 nM; on SMYD3 [2], 203 nM.

Take `C[C@H]1C[C@@H](NC(=O)c2cc(C3CC3)on2)CCN1S(=O)(=O)N1CCNC(C)(C)C1` [compound 638, 5-cyclopropyl-N-((2S,4S)-1-((3,3-dimethylpiperazin-1-yl)sulfonyl)-2-methylpiperidin-4-yl)isoxazole-3-carboxamide]: the concentration for half-maximal inhibition (IC50) at SMYD3 [1] worked out at 33.7 nM; at SMYD3 [2] it was 254 nM.

On to `C[C@H]1C[C@@H](NC(=O)c2cc(C3CC3)on2)CCN1S(=O)(=O)N1CCCN(C)CC1` [compound 639, 5-cyclopropyl-N-((2S,4S)-2-methyl-1-((4-methyl-1,4-diazepan-1-yl)sulfonyl)piperidin-4-yl)isoxazole-3-carboxamide], for which the half-maximal inhibitory concentration (IC50) at SMYD3 [1] came to 34.8 nM; on SMYD3 [2], 258 nM.

Take `CC(C)CNCCCS(=O)(=O)N1CC[C@H](NC(=O)c2cc(C3CC3)on2)C[C@@H]1C` [compound 640, 5-cyclopropyl-N-((2S,4S)-1-((3-(isobutylamino)propyl)sulfonyl)-2-methylpiperidin-4-yl)isoxazole-3-carboxamide]: the IC50 at SMYD3 [1] was found to be 35.7 nM; on SMYD3 [2], 480 nM.

Regarding `CN1CCN(S(=O)(=O)N2[C@@H]3CC[C@H]2C[C@@H](NC(=O)c2cc(C4CC4)on2)C3)CC1` [compound 641, 5-cyclopropyl-N-((1R,3r,5S)-8-((4-methylpiperazin-1-yl)sulfonyl)-8-azabicyclo[3.2.1]octan-3-yl)isoxazole-3-carboxamide], the IC50 at SMYD3 [1] amounted to 36.3 nM; on SMYD3 [2] it was 188 nM.

Take `C[C@@H]1CN(S(=O)(=O)CCCN)[C@H](C)C[C@@H]1NC(=O)c1cc(C2CC2)on1` [compound 642, N-((2R,4S,5R)-1-((3-aminopropyl)sulfonyl)-2,5-dimethylpiperidin-4-yl)-5-cyclopropylisoxazole-3-carboxamide]: the 50% inhibitory concentration (IC50) stood at 37.6 nM on SMYD3 [1] and 571 nM at SMYD3 [2].

As to `O=C(N[C@H]1C[C@H]2CC[C@@H](C1)N2S(=O)(=O)N1CCNC(CO)C1)c1cc(C2CC2)on1` (stereo partly drawn) [compound 643, 5-cyclopropyl-N-((1R,3r,5S)-8-((3-(hydroxymethyl)piperazin-1-yl)sulfonyl)-8-azabicyclo[3.2.1]octan-3-yl)isoxazole-3-carboxamide], the figures for the IC50 on SMYD3 [1] and at SMYD3 [2] were 37.8 nM and 211 nM, respectively.

Turning to `C[C@@H]1C[C@H](NC(=O)c2cc(C3CC3)on2)CCN1C(=O)c1ccc(C2CCNCC2)cc1` [compound 644, 5-cyclopropyl-N-((2R,4R)-2-methyl-1-(4-(piperidin-4-yl)benzoyl)piperidin-4-yl)isoxazole-3-carboxamide], the figures for the half-inhibitory concentration (IC50) on SMYD3 [1] and at SMYD3 [2] were 41.3 nM and 303 nM, respectively.

As to `C[C@H]1C[C@@H](NC(=O)c2cc(C3CC3)on2)CCN1S(=O)(=O)CCCNC(c1ccccc1)c1ccccc1` [compound 645, N-((2S,4S)-1-((3-(benzhydrylamino)propyl)sulfonyl)-2-methylpiperidin-4-yl)-5-cyclopropylisoxazole-3-carboxamide], the half-maximal inhibitory concentration (IC50) on SMYD3 [1] stood at 44.4 nM; at SMYD3 [2] it was 575 nM.

In the case of `C[C@H]1CN(S(=O)(=O)NC2CCNCC2)CC[C@H]1NC(=O)c1cc(C2CC2)on1` [compound 646, 5-cyclopropyl-N-((3S,4R)-3-methyl-1-(N-(piperidin-4-yl)sulfamoyl)piperidin-4-yl)isoxazole-3-carboxamide], the concentration for half-maximal inhibition (IC50) on SMYD3 [1] was found to be 45.2 nM; on SMYD3 [2] it was 755 nM.

With `O=C(N[C@H]1CCN(S(=O)(=O)CC2CCNCC2)[C@@H](Cc2ccccc2)C1)c1cc(C2CC2)on1` [compound 647, N-((2S,4S)-2-benzyl-1-((piperidin-4-ylmethyl)sulfonyl)piperidin-4-yl)-5-cyclopropylisoxazole-3-carboxamide], the IC50 worked out at 45.5 nM on SMYD3 [1] and 809 nM on SMYD3 [2].

For the molecule `COCCCN1CCC(CS(=O)(=O)N2CC[C@@H](NC(=O)c3cc(C4CC4)on3)[C@@H](C)C2)CC1` [compound 648, 5-cyclopropyl-N-((3S,4R)-1-(((1-(3-methoxypropyl)piperidin-4-yl)methyl)sulfonyl)-3-methylpiperidin-4-yl)isoxazole-3-carboxamide], the IC50 on SMYD3 [1] is 46.8 nM; at SMYD3 [2] it was 331 nM.

Consider `CNCCS(=O)(=O)N1[C@@H]2CC[C@H]1C[C@@H](NC(=O)c1cc(C3CC3)on1)C2` [compound 649, 5-cyclopropyl-N-((1R,3r,5S)-8-((2-(methylamino)ethyl)sulfonyl)-8-azabicyclo[3.2.1]octan-3-yl)isoxazole-3-carboxamide], for which the IC50 was found to be 47.2 nM on SMYD3 [1] and 261 nM on SMYD3 [2].

In the case of `C[C@H]1C[C@@H](NC(=O)c2cc(C3CC3)on2)CCN1S(=O)(=O)NCCN` [compound 650, N-((2S,4S)-1-(N-(2-aminoethyl)sulfamoyl)-2-methylpiperidin-4-yl)-5-cyclopropylisoxazole-3-carboxamide], the half-maximal inhibitory concentration (IC50) at SMYD3 [1] turned out to be 49.1 nM; on SMYD3 [2] it was 4630 nM.

For the molecule `CN(C)C1CCN(CCS(=O)(=O)N2[C@@H]3CC[C@H]2C[C@@H](NC(=O)c2cc(C4CC4)on2)C3)C1` (stereo partly drawn) [compound 651, 5-cyclopropyl-N-((1R,3r,5S)-8-((2-(3-(dimethylamino)pyrrolidin-1-yl)ethyl)sulfonyl)-8-azabicyclo[3.2.1]octan-3-yl)isoxazole-3-carboxamide], the results for the 50% inhibitory concentration (IC50) on SMYD3 [1] and at SMYD3 [2] were 50.6 nM and 532 nM, respectively.

As to `C[C@@H]1C[C@@H](NC(=O)c2cc(C3CC3)on2)CCN1S(=O)(=O)N1CCNCC1` [compound 652, 5-cyclopropyl-N-((2R,4S)-2-methyl-1-(piperazin-1-ylsulfonyl)piperidin-4-yl)isoxazole-3-carboxamide], the IC50 is 51.1 nM on SMYD3 [1] and 339 nM on SMYD3 [2].

Consider `C[C@H]1CN(S(=O)(=O)N(C)C2CCNCC2)CC[C@H]1NC(=O)c1cc(C2CC2)on1` [compound 653, 5-cyclopropyl-N-((3S,4R)-3-methyl-1-(N-methyl-N-(piperidin-4-yl)sulfamoyl)piperidin-4-yl)isoxazole-3-carboxamide], for which the IC50 on SMYD3 [1] was found to be 55 nM; at SMYD3 [2], 328 nM.
